Holding throughout (assay type): functional
For one experiment, the system named is Escherichia coli. Kind of experiment: Antibacterial activity against Escherichia coli K-12 MG1655 assessed as bacterial growth inhibition incubated for 18 to 20 hrs by broth microdilution method. The settings on record: time 18-20 hrs.
For a further experiment, the system named is Klebsiella aerogenes. The experiment in a line: Antibacterial activity against Klebsiella aerogenes ATCC 35029 assessed as bacterial growth inhibition incubated for 18 to 20 hrs by broth microdilution method. The settings on record: time 18-20 hrs. For orientation: In broth dilution the organism is exposed to a series of concentrations in liquid medium.

A further experiment relates to Klebsiella pneumoniae. Kind of experiment: Antibacterial activity against Klebsiella pneumoniae ATCC 700603 assessed as bacterial growth inhibition incubated for 18 to 20 hrs by broth microdilution method. The settings on record: time 18-20 hrs.
In experiment [1] the test system is Providencia alcalifaciens. Kind of experiment: Antibacterial activity against Providencia alcalifaciens ATCC 9886 assessed as bacterial growth inhibition incubated for 18 to 20 hrs by broth microdilution method. The settings on record: time 18-20 hrs.
In a further experiment the test system is Salmonella enterica. The experiment in a line: Antibacterial activity against Salmonella enterica ATCC 13311 assessed as bacterial growth inhibition incubated for 18 to 20 hrs by broth microdilution method. As to conditions: time 18-20 hrs.
The subject of the next experiment is Shigella sonnei. The experiment in a line: Antibacterial activity against Shigella sonnei ATCC 25931 assessed as bacterial growth inhibition incubated for 18 to 20 hrs by broth microdilution method. As to conditions: time 18-20 hrs.
Experiment [2] deals with Yersinia pseudotuberculosis. The experiment in a line: Antibacterial activity against Yersinia pseudotuberculosis ATCC 6904 assessed as bacterial growth inhibition incubated for 18 to 20 hrs by broth microdilution method. As to conditions: time 18-20 hrs.
Another experiment concerns Acinetobacter baumannii. The experiment in a line: Antibacterial activity against Acinetobacter baumannii ATCC 19606 assessed as bacterial growth inhibition incubated for 18 to 20 hrs by broth microdilution method. The settings on record: time 18-20 hrs.
Another experiment relates to Pseudomonas aeruginosa. Kind of experiment: Antibacterial activity against Pseudomonas aeruginosa ATCC 27853 assessed as bacterial growth inhibition incubated for 18 to 20 hrs by broth microdilution method. The settings on record: time 18-20 hrs.
A further experiment deals with Vibrio cholerae. Kind of experiment: Antibacterial activity against Vibrio cholerae A1552 El Tor assessed as bacterial growth inhibition incubated for 18 to 20 hrs by broth microdilution method. The settings on record: time 18-20 hrs.
The next experiment concerns Brucella anthropi. Kind of experiment: Antibacterial activity against Ochrobactrum anthropi ATCC 49687 assessed as bacterial growth inhibition incubated for 18 to 20 hrs by broth microdilution method. As to conditions: time 18-20 hrs.
For the next experiment, the system named is Bacillus subtilis. Kind of experiment: Antibacterial activity against Bacillus subtilis ATCC 6051 assessed as bacterial growth inhibition incubated for 18 to 20 hrs by broth microdilution method. The settings on record: time 18-20 hrs.
A further experiment concerns Listeria ivanovii. The experiment in a line: Antibacterial activity against Listeria ivanovii BAA-139 assessed as bacterial growth inhibition incubated for 18 to 20 hrs by broth microdilution method. As to conditions: time 18-20 hrs.
Experiment [3] deals with Staphylococcus aureus. Kind of experiment: Antibacterial activity against methicillin-sensitive Staphylococcus aureus ATCC 29213 assessed as bacterial growth inhibition incubated for 18 to 20 hrs by broth microdilution method. As to conditions: time 18-20 hrs.
The test system of experiment [4] is Staphylococcus aureus. The experiment in a line: Antibacterial activity against methicillin-resistant Staphylococcus aureus BAA-44 assessed as bacterial growth inhibition incubated for 18 to 20 hrs by broth microdilution method. The settings on record: time 18-20 hrs.
The subject of experiment [5] is Staphylococcus epidermidis. The experiment in a line: Antibacterial activity against Staphylococcus epidermidis ATCC 14990 assessed as bacterial growth inhibition incubated for 18 to 20 hrs by broth microdilution method. As to conditions: time 18-20 hrs.
In a further experiment the test system is Enterococcus faecium. The experiment in a line: Antibacterial activity against Enterococcus faecium ATCC 6569 assessed as bacterial growth inhibition incubated for 18 to 20 hrs by broth microdilution method. As to conditions: time 18-20 hrs.
A further experiment concerns Enterococcus faecalis. The experiment in a line: Antibacterial activity against Enterococcus faecalis ATCC 29212 assessed as bacterial growth inhibition incubated for 18 to 20 hrs by broth microdilution method. The settings on record: time 18-20 hrs.
Another experiment deals with Streptococcus pneumoniae. Kind of experiment: Antibacterial activity against Streptococcus pneumoniae ATCC 49619 assessed as bacterial growth inhibition incubated for 18 to 20 hrs by broth microdilution method. As to conditions: time 18-20 hrs.
Experiment [6] deals with Mycobacterium tuberculosis. The experiment in a line: Antimycobacterial activity against Mycobacterium tuberculosis mc2 6230 measured after 7 days. As to conditions: mc2 6230, 168 h, time 7 day.

Experimental findings from ChEMBL document CHEMBL5046300, “Potent Bactericidal Antimycobacterials Targeting the Chaperone ClpC1 Based on the Depsipeptide Natural Products Ecumicin and Ohmyungsamycin A” (2022) are described below.

Converted amounts (≈) assume the structure as drawn. Where a SMILES comes first, the peptide text is derived from it. Bridges are numbered along the chain shown (N, C = ends). [ ]: non-standard residue; d: D form. NMeW = CN[C@@H](Cc1c[nH]c2ccccc12)C(=O)O; NMeChg = CN[C@H](C(=O)O)C1CCCCC1; NMeT = CN[C@H](C(=O)O)[C@@H](C)O; NMeD = CN[C@@H](CC(=O)O)C(=O)O; NMeL = CN[C@@H](CC(C)C)C(=O)O; NMeNle = CCCC[C@H](NC)C(=O)O; NMeV = CN[C@H](C(=O)O)C(C)C; NMeS = CN[C@@H](CO)C(=O)O; Sar = CNCC(=O)O

A word on the MIC: it is the lowest concentration found to suppress growth. On to `CN[C@@H]1[C@H](O[C@H]2[C@H](O[C@H]3[C@H](O)[C@@H](O)[C@H](N=C(N)N)[C@@H](O)[C@@H]3N=C(N)N)O[C@@H](C)[C@]2(O)C=O)O[C@@H](CO)[C@H](O)[C@H]1O` [STREPTOMYCIN], for which the MIC in the experiment with Escherichia coli was 0.25 µM (≈ 0.145 µg/mL); in the experiment on Klebsiella aerogenes, 0.25 µM (≈ 0.145 µg/mL); with Klebsiella pneumoniae, 0.17 µM (≈ 0.0989 µg/mL); in experiment [1] it was 9.3 µM (≈ 5.41 µg/mL); with Salmonella enterica it was 0.33 µM (≈ 0.192 µg/mL); with Shigella sonnei it was 0.25 µM (≈ 0.145 µg/mL). The MIC was found to be 6.7 µM (≈ 3.9 µg/mL) in [2]; 128 µM (≈ 74.4 µg/mL) in the experiment on Acinetobacter baumannii; 16 µM (≈ 9.31 µg/mL) with Pseudomonas aeruginosa; 13 µM (≈ 7.56 µg/mL) with Vibrio cholerae; 128 µM (≈ 74.4 µg/mL) in the experiment with Brucella anthropi; 128 µM (≈ 74.4 µg/mL) in the experiment with Bacillus subtilis. The MIC was 4 µM (≈ 2.33 µg/mL) with Listeria ivanovii; 2.7 µM (≈ 1.57 µg/mL) in the experiment on Staphylococcus aureus [3]; 9.3 µM (≈ 5.41 µg/mL) in the experiment with Staphylococcus aureus [4]; 2.7 µM (≈ 1.57 µg/mL) in [5]; 16 µM (≈ 9.31 µg/mL) in the experiment with Enterococcus faecium; 128 µM (≈ 74.4 µg/mL) in the experiment on Enterococcus faecalis. Moreover, the MIC in the experiment with Streptococcus pneumoniae is 48 µM (≈ 27.9 µg/mL).

In experiment [6], `CN[C@H](C(=O)N[C@H](C(=O)N[C@@H]1C(=O)N(C)[C@@H]([C@@H](C)O)C(=O)N[C@@H](C(C)C)C(=O)N(C)[C@@H](CC(C)C)C(=O)N[C@@H](C(C)C)C(=O)N(C)[C@@H](C2CCCCC2)C(=O)N(C)[C@@H](Cc2c[nH]c3ccccc23)C(=O)N[C@@H](C(C)C)C(=O)N[C@@H](Cc2ccccc2)C(=O)N[C@@H](C(C)C)C(=O)O[C@@H]1C)C(C)C)C(C)C` (H-[NMeV]VT[NMeT]V[NMeL]V[NMeChg][NMeW]VFV; ester 3-C) displayed an MIC of 0.5 µM (≈ 0.726 µg/mL).

With `CN[C@H](C(=O)N[C@H](C(=O)N[C@@H]1C(=O)N(C)[C@@H]([C@@H](C)O)C(=O)N[C@@H](C(C)C)C(=O)N(C)[C@@H](CC(C)C)C(=O)N[C@@H](C(C)C)C(=O)N(C)[C@@H](Cc2c[nH]c3ccccc23)C(=O)N(C)[C@@H](Cc2c[nH]c3ccccc23)C(=O)N[C@@H](C(C)C)C(=O)N[C@@H](Cc2ccccc2)C(=O)N[C@@H](C(C)C)C(=O)O[C@@H]1C)C(C)C)C(C)C` (H-[NMeV]VT[NMeT]V[NMeL]V[NMeW][NMeW]VFV; ester 3-C), inhibition of growth in experiment [6] (MIC) required 0.5 µM (≈ 0.75 µg/mL).

With `CN[C@H](C(=O)N[C@H](C(=O)N[C@@H]1C(=O)N(C)[C@@H]([C@@H](C)O)C(=O)N[C@@H](C(C)C)C(=O)N(C)[C@@H](CC(C)C)C(=O)N[C@@H](C(C)C)C(=O)N(C)[C@@H](CC(=O)O)C(=O)N(C)[C@@H](Cc2c[nH]c3ccccc23)C(=O)N[C@@H](C(C)C)C(=O)N[C@@H](Cc2ccccc2)C(=O)N[C@@H](C(C)C)C(=O)O[C@@H]1C)C(C)C)C(C)C` (H-[NMeV]VT[NMeT]V[NMeL]V[NMeD][NMeW]VFV; ester 3-C), in experiment [6], the MIC was found to be 32 µM (≈ 45.7 µg/mL).

For the compound `CN[C@H](C(=O)N[C@H](C(=O)N[C@@H]1C(=O)N(C)[C@@H]([C@@H](C)O)C(=O)N[C@@H](C(C)C)C(=O)N(C)[C@@H](CC(C)C)C(=O)N[C@@H](C(C)C)C(=O)N(C)CC(=O)N(C)[C@@H](Cc2c[nH]c3ccccc23)C(=O)N[C@@H](C(C)C)C(=O)N[C@@H](Cc2ccccc2)C(=O)N[C@@H](C(C)C)C(=O)O[C@@H]1C)C(C)C)C(C)C` (H-[NMeV]VT[NMeT]V[NMeL]V[Sar][NMeW]VFV; ester 3-C), in [6], 8 µM (≈ 11 µg/mL) was the least that counted as inhibitory (MIC).

The compound `CCCC[C@H]1C(=O)N(C)[C@@H](Cc2c[nH]c3ccccc23)C(=O)N[C@@H](C(C)C)C(=O)N[C@@H](Cc2ccccc2)C(=O)N[C@@H](C(C)C)C(=O)O[C@H](C)[C@H](NC(=O)[C@@H](NC(=O)[C@@H](NC)C(C)C)C(C)C)C(=O)N(C)[C@@H]([C@@H](C)O)C(=O)N[C@@H](C(C)C)C(=O)N(C)[C@@H](CC(C)C)C(=O)N[C@@H](C(C)C)C(=O)N1C` (H-[NMeV]VT[NMeT]V[NMeL]V[NMeNle][NMeW]VFV; ester 3-C) yielded an MIC in [6] of 0.5 µM (≈ 0.713 µg/mL).

For `CN[C@H](C(=O)N[C@H](C(=O)N[C@@H]1C(=O)N(C)[C@@H]([C@@H](C)O)C(=O)N[C@@H](C(C)C)C(=O)N(C)[C@@H](CC(C)C)C(=O)N[C@@H](C(C)C)C(=O)N2CCC[C@H]2C(=O)N(C)[C@@H](Cc2c[nH]c3ccccc23)C(=O)N[C@@H](C(C)C)C(=O)N[C@@H](Cc2ccccc2)C(=O)N[C@@H](C(C)C)C(=O)O[C@@H]1C)C(C)C)C(C)C` (H-[NMeV]VT[NMeT]V[NMeL]VP[NMeW]VFV; ester 3-C), in experiment [6], the lowest concentration to inhibit growth (MIC) was 8 µM (≈ 11.2 µg/mL).

Compound `CN[C@H](C(=O)N[C@H](C(=O)N[C@@H]1C(=O)N(C)[C@@H]([C@@H](C)O)C(=O)N[C@@H](C(C)C)C(=O)N(C)[C@@H](CC(C)C)C(=O)N[C@@H](C(C)C)C(=O)N(C)[C@@H](CO)C(=O)N(C)[C@@H](Cc2c[nH]c3ccccc23)C(=O)N[C@@H](C(C)C)C(=O)N[C@@H](Cc2ccccc2)C(=O)N[C@@H](C(C)C)C(=O)O[C@@H]1C)C(C)C)C(C)C` (H-[NMeV]VT[NMeT]V[NMeL]V[NMeS][NMeW]VFV; ester 3-C) had a minimal inhibitory concentration (MIC) in [6] of 2 µM (≈ 2.8 µg/mL).
